Measured values from US20240409542A1, “NOVEL COMPOUNDS” (Sitryx Therapeutics Limited, priority 2021, published 2024).
Values after ≈ are worked out from the molar mass of the structure shown.

What was measured:
recombinant human PKM2 = recombinant human PKM2 (Homo sapiens (Human), UniProt P14618); assay: Human PKM2 activation assay (Kinase-Glo Plus luminescence); format: biochemical; conditions: for EC50: activation of recombinant human PKM2, 4-parameter logistic fit, read-out: hPKM2 EC50
Method: Compound activation of recombinant human PKM2 pyruvate kinase activity was determined by biochemical assay. N-terminal His-tagged hPKM2 was sourced from R&D Systems and its substrates phosphoenolpyruvate (PEP) and ADP from Sigma-Aldrich and 2BScientific Ltd, respectively. The Kinase-Glo® Plus luminescence assay was from Promega. All other reagents were from Sigma-Aldrich. Test Compounds were prepared as 10 mM DMSO stocks and dilution series prepared in DMSO for direct dilution into Assay Buffer comprising 50 mM imidazole, 50 mM KCl, 7 mM MgCl2, 0.01% Tween20, 0.05% BSA (pH 7.2).
Human PKM2 was diluted into Assay Buffer comprising 50 mM imidazole, 50 mM KCl, 7 mM MgCl2, 0.01% Tween20, 0.05% BSA (pH 7.2) to a final concentration of 5 pM. Enzyme-Assay Buffer mix was dispensed into a 384-well shallow-well white-walled plate (PerkinElmer) and Test Compounds added by acoustic dispense (Echo®, Labcyte Inc.).
After 60 minutes' incubation on an orbital shaker (300 rpm, 26° C.), enzyme activity was quantified by the luminescent detection of generated ATP. Kinase-Glo® Plus reagent was added to each well and the plates incubated for a further 15 minutes on an orbital shaker in the dark (300 rpm, 26° C.) before luminescence measurement on a plate reader (PHERAstar® FSX, BMG Labtech).
EC50 and Emax values were determined from 4-parameter logistic fits of compound concentration-response curves.

A549 cells = assay: A549 proliferation assay in low-serine medium (CellTiter-Glo); format: cell-based; conditions: Homo sapiens, 72 h, 3 days, low-serine medium (20 μM L-serine)
Method: The effect of compounds of Formula (I) on A549 cell proliferation in low-serine medium was assessed using a luminescence assay of viable cell number (CellTiter-Glo® 2.0, Promega) duplexed with a fluorescent cytotoxicity assessment (CellTox™ Green, Promega). Cell culture reagents were from ThermoFisher unless specified otherwise. Assay reagents were from Sigma-Aldrich unless specified otherwise. Test Compounds were prepared as 10 mM DMSO stocks and dilution series prepared in DMSO for direct dilution into culture medium.
Cells were passaged every 3-4 days at 80-90% confluence. The cell monolayer was washed twice with room-temperature Ca^2+/Mg-free PBS and 4 ml room-temperature trypsin-EDTA added to the flask. After 5 minutes' incubation (37° C., 5% CO2) to detach cells, trypsin was quenched with 13 ml warmed complete growth medium and the cells harvested and diluted to 2.4×10^4 cells/ml for dispensing into 384-well clear-bottom black-walled plates (600 cells/well).
Following overnight incubation, growth medium was aspirated from each well and the cells washed twice with Assay Medium comprising Basal Medium Eagle supplemented with 3% heat-inactivated dialysed FBS plus 2 mM L-glutamine plus 20 μM L-serine (Sigma-Aldrich). After aspiration of the final wash medium, Assay Medium containing Test Compound was added to each well. DMSO vehicle controls were included on each plate.
Cells were incubated for 3 days in a humidified incubator (37° C., 5% CO2) at which point CellTox™ Green and CellTiter-Glo® reagents were prepared according to the manufacturer's instructions. Triton-X was added to HIGH wells for cytotoxicity determination and the plate incubated for 30 minutes (20° C., ambient humidity and pCO2). CellTox™ Green reagent was added to each well and the plate covered, placed on an orbital shaker @450 rpm for 2 minutes, and incubated in the dark for 15 minutes (20° C., ambient humidity and pCO2). Endpoint fluorescence was measured using a plate reader (PHERAstar® FSX, BMG Labtech).
Following cytotoxicity determination, CellTiter-Glo® reagent was added to each well and the plate placed on an orbital shaker @450 rpm for 2 minutes to lyse cells. Plates were incubated in the dark for 15-30 minutes (20° C., ambient humidity and pCO2) prior to endpoint luminescence measurement (PHERAstar® FSX, BMG Labtech).
Proliferation was calculated by normalizing luminescence signals to LOW controls obtained from a parallel plate processed at the time of Test Compound challenge and HIGH (DMSO vehicle) wells from the compound plate. IC50 values were determined from a 4-parameter logistic fit of compound concentration-response curves.

[1] = Kinetic aqueous solubility; conditions: phosphate buffered saline (PBS) pH 7.4, pH 7.4, aqueous buffer, kinetic from dmso stock, Kinetic solubility (Ksol), (μg/ml), PBS pH 7.4, 200 μM (2% DMSO), RT
Method: (§1) Phosphate buffered saline (PBS) pH 7.4 was prepared using PBS tablets as per the manufacturer's instructions. Compounds and marker stocks are prepared at 10 mM in DMSO.
(§2) Compounds were incubated at 200 μM (2% DMSO) in Millipore—MSS LB PC 10 or Porvair—ref: 36004 plates in the presence of the prepared PBS pH 7.4 solution for 1.5 h, at RT, with gentle shaking. […] The samples were then analysed in a 96 well UV Star analysis plate on a plate reader from 220 nm to 500 nm at 10 nm increments.
(§3) The concentration of the samples was calculated against the standard curves.

recombinant human PKLR = recombinant human PKLR (Homo sapiens (Human), UniProt P30613); assay: Human PKLR activation assay (Kinase-Glo Plus luminescence)
Sequence of recombinant human PKLR (P30613 whole entry): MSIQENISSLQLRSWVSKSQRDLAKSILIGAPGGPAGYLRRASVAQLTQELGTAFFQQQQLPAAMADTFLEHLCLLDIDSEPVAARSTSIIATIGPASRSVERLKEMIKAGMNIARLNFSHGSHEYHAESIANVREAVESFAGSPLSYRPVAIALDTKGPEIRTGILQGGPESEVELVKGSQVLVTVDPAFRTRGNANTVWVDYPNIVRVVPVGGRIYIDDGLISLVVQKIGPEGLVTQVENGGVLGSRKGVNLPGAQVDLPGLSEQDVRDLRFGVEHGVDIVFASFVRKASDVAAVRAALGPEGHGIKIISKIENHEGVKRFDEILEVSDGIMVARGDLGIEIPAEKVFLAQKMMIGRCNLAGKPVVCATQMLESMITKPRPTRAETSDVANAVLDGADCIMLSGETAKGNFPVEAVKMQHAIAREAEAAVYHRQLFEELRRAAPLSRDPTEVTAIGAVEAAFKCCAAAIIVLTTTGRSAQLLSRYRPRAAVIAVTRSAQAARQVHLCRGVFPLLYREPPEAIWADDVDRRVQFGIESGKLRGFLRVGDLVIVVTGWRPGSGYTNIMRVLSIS
Method: Compound activation of recombinant human PKLR pyruvate kinase activity was determined by biochemical assay. N-terminal His-tagged enzyme was sourced from R&D Systems and its substrates phosphoenolpyruvate (PEP) and ADP from Sigma-Aldrich and 2BScientific Ltd, respectively. The Kinase-Glo® Plus luminescence assay was from Promega. All other reagents were from Sigma-Aldrich. Test Compounds were prepared as 10 mM DMSO stocks and dilution series prepared in DMSO for direct dilution into Assay Buffer comprising 50 mM imidazole, 50 mM KCl, 7 mM MgCl2, 0.01% Tween20, 0.05% BSA (pH 7.2).
Human PKLR was diluted into Assay Buffer to a final concentration of 5 pM. Enzyme-Assay Buffer mix was dispensed into 384-well shallow-well white-walled plates and Test Compounds added by acoustic dispense (Echo®, Labcyte Inc).

[2] = pH 7.4
Method: as §1, §2, §3

Sequence of recombinant human PKM2 (P14618 whole entry): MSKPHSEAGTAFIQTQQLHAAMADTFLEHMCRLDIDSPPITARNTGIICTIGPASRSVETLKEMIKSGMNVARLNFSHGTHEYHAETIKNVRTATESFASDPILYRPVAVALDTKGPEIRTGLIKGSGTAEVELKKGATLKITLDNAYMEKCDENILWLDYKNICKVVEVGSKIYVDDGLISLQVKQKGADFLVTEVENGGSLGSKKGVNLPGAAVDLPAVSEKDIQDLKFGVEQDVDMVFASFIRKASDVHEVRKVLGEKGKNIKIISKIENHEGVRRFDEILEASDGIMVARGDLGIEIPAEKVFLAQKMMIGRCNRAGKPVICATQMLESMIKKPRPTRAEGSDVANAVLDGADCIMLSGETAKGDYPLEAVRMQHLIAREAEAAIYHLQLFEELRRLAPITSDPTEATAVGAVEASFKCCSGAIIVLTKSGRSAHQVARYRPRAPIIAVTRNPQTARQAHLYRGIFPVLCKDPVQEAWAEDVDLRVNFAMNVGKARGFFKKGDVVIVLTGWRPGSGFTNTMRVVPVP

EC50 (recombinant human PKM2) [nM] | Emax (recombinant human PKM2; read-out: hPKM2 Emax (%)) [%] | IC50 (A549 cells) [nM] | solubility kinetic at 1.5 h [1] [µg/mL] | EC50 (recombinant human PKLR) [nM] | Emax (recombinant human PKLR; read-out: hPKLR Emax (%)) [%] | hPKM2 Emax (%) (recombinant human PKM2; percentage activation normalised to DMSO vehicle (LOW) and 5 μM TEPP-46 (HIGH)) | Kinetic solubility (Ksol); [2] [µg/mL] | Compound
1490 | 79.7 | 13.5 | 61.6 (≈ 145 µM) | 60 to 320 | 100 to 117 | – | – | Cn1c2c(c3cnn(Cc4cc[nH]n4)c(=O)c31)CCN(S(=O)(=O)c1ccccc1)C2 [Example 12, 3-((1H-pyrazol-3-yl)methyl)-5-methyl-7-(phenylsulfonyl)-3,5,6,7,8,9-hexahydro-4H-pyrido[4′,3′:4,5]pyrrolo[2,3-d]pyridazin-4-one]
83 | – | – | – | – | – | 62.2 | 30.29 | (3-((1H-pyrrolo[2,3-c]pyridin-3-yl)methyl)-N-ethyl-5-methyl-4-oxo-5,6,8,9-tetrahydro-3H-pyrido[4′,3′:4,5]pyrrolo[2,3-d]pyridazine-7(4H)-sulfonamide [Example 30]
